Results taken from patent US11008332B2, “Pharmaceutical composition for preventing or treating aging-related diseases containing decursin derivative as active ingredient” (PRG S&TECH INC., priority 2017, dated 2021).

Key:
CYP1A2 = biological target: T1, CYP1A2 (Homo sapiens, UniProt P05177); assay: CYP inhibition CYP1A2; format: in vitro ADME
T1 sequence (P05177 1-516): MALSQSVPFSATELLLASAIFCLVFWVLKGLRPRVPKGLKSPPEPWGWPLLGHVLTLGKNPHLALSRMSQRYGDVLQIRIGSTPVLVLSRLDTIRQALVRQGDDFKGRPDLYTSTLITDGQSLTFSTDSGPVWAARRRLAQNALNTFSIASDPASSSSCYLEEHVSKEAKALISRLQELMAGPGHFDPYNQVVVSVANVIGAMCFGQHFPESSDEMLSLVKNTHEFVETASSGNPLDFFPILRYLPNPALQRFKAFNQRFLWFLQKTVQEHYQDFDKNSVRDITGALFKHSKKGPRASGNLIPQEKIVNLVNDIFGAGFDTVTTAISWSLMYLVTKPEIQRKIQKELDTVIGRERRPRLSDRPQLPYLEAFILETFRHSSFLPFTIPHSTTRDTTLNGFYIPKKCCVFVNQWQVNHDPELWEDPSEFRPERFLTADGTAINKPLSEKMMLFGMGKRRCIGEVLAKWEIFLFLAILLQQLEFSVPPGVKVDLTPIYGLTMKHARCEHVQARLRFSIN
Description: In vitro ADME studies (plasma protein binding, CYP inhibition, microsomal stability, plasma stability and hERG inhibition) were performed by New drug development center though standard protocols.

Water solubility = format: physicochemical

CC1(C)Oc2cc3oc(=O)ccc3cc2C[C@@H]1OC/C=C/c1ccccc1 [SLC-D011, (7S)-(+)-8,8-dimethyl-7-(3-phenyl-allyloxy)-7,8-dihydro-6H-pyrano[3,2-g]chromen-2-one]
CYP inhibition CYP1A2 (CYP1A2): 81.6
water solubility (Water solubility): very low water solubility
